Assay results as given in US6927211B2, “Method for reducing toxicity of combined chemotherapies” (Bristol-Myers Squibb Company, priority 2000, dated 2005).
Entries after “also recorded” stand apart in the source; their conditions may differ.

How the values were obtained:
Type in all cases: biochemical
human cardiac microsomes [1] = assay: NADPH oxidation by deoxycholate-solubilized human heart microsomes incubated with DOX, plus or minus taxanes; conditions: 10 μM DOX, 1-10 μM taxane; FIG. 5
Description: (§1) 105,000 g pellets from human myocardium homogenates are solubilized with deoxycolate and reconstituted at the final concentration of 0.025 mg prot/ml with 10 μM DOX, 1-10 μM taxane, 0.1 mM NADPH, in 0.3 M NaCl, pH 7.0, 37° C.
(§2) Electron flow from NADPH cytochrome P-450 reductase to the quinone moiety of DOX is detected by monitoring NADPH oxidation. Redox coupling of the semiquinone with oxygen is detected by monitoring formation of the superoxide anion radical with the superoxide dismutase-inhibitable reduction of cytochrome c (25 μM). These assays are performed in a Hewlett Packard 8453A UV/VIS/NIR spectrometer equipped with computer-assisted corrections for scatter and turbidity.

human cardiac cytosol [2] = assay: Reconstitution of DOX metabolism and DOXol formation, plus or minus taxanes, in human cardiac cytosol; conditions: for stimulation of DOXol formation (in words): [4Fe-4S]-depleted cytosol, DOX 25 μM, taxanes 1-50 μM, 4 h, FIG. 3; for doxorubicinol formation from DOX: taxane 1 μM, DOX without taxane 0.46±0.04, n=3, P<0.05
Description: (§3) Human myocardium is obtained from patients undergoing aorto-coronary bypass grafting. All samples were routinely disposed of by the surgeons from the lateral aspect of excluded right atrium during cannulation procedures for cardio-pulmonary by-pass. After storage at −80° C., pools of 15-20 samples are processed for cytosol preparation by sequential homogenization, ultracentrifugation and overnight 65% ammonium sulfate precipitation of 105,000 g supernatants. Next, cytosol is dialyzed against 100 mM Tris HCl-40 mM KCl, pH 8.9, diluted to 3 mg protein/ml with the same buffer, and incubated for 15 minutes at room temperature with 100 mM dithiothreitol to promote non-denaturing disassembly of the [4Fe-4S] cluster of cytoplasmic aconitase. This treatment is necessary as reactions of DOXol with [4Fe-4S] clusters would convert this metabolite back to DOX. Sizable amounts of DOXol would therefore go undetected if they reacted with [4Fe-4S] clusters prior to their assay. Unreacted dithiothreitol was eventually removed by sequential gel filtration on (1.5×10 cm) Sepharose 6B columns, protein reprecipitation with 65% ammonium sulfate, and extensive dialysis against 0.3 M NaCl, pH 7.0. Doxorubicin metabolism was reconstituted in 0.5 ml incubations containing cytosol (0.15 mg protein), NADPH (100 μM) and DOX (25 μM), in 0.3 M NaCl (pH 7.0) 37° C. Where indicated ethanol-dissolved taxanes (1-50 μM) were included. Aliquots of taxane-free ethanol (5 μl) were included as appropriate to adjust the final volume to 10 μl in all incubations. After 4 h DOX and DOXol were extracted with 2 ml of CHCl3/CH3OH (1:1) and separated by previously validated two-dimensional TLC on (20×20 cm) […] F524 Silica Gel Plates, using CHCl3/CH3OH/CH3COOH/H2O (80:20:14:6) as mobile phase in either dimension. Doxorubicinol was identified by cochromatography with (S)-DOXol from Streptomyces peucetius or (S) (R)-DOXol purified after NaBH4 reduction of DOX. Where indicated incubations were prepared by replacing DOX with DOX aglycone and by measuring formation of DOXol aglycone. The latter was separated from DOX aglycone by using CHCl3/CH3OH/CH3COOH (100:2:5) and CH3COOC2H5—CH3CH2OH—CH3COOH—H2O (80:10:5:5) in the first and second dimension, respectively. DOX aglycone was purified after thermoacid hydrolysis of DOX.

human cardiac microsomes [3] = assay: Superoxide anion formation (SOD-inhibitable cytochrome c reduction) by deoxycholate-solubilized human heart microsomes with DOX, plus or minus taxanes; conditions: for increase of DOX-dependent superoxide anion formation (in words): 10 μM taxane with DOX
Description: as §1, §2

human cardiac cytosol [4] = assay: Conversion of DOX aglycone into DOXol aglycone, plus or minus taxanes, in human cardiac cytosol; conditions: for stimulation of conversion of DOX aglycone into DOXol aglycone (in words): human cardiac cytosol, FIG. 4; for doxorubicinolone formation from doxorubicinone: taxane 1 μM, without taxane 0.8±0.1, n=3, P<0.05
Description: as §3

Row | generation of superoxide anion radicals in microsomal fractions (human cardiac microsomes [3]; taxane 10 μM, DOX without taxane 1.6±0.1, n=4-10, P<0.05) | SMILES | stimulation of NADPH oxidation in the presence of DOX (in words) (human cardiac microsomes [1]) | stimulation of DOXol formation (in words) (human cardiac cytosol [2]) | doxorubicinol formation from DOX (human cardiac cytosol [2]) | increase of DOX-dependent superoxide anion formation (in words) (human cardiac microsomes [3]; FIG. 6) | stimulation of conversion of DOX aglycone into DOXol aglycone (in words) (human cardiac cytosol [4]) | doxorubicinolone formation from doxorubicinone (human cardiac cytosol [4]) | effect of DOX on superoxide anion formation (in words) (human cardiac microsomes [3]; DOX without taxane, FIG. 6)
1 |  | CC(=O)O[C@@]12CO[C@@H]1C[C@H](O)[C@@]1(C)C(=O)[C@H](O)C3=C(C)[C@@H](OC(=O)[C@H](O)[C@@H](NC(=O)OC(C)(C)C)c4ccccc4)C[C@@](O)([C@@H](OC(=O)c4ccccc4)[C@H]21)C3(C)C [DCT, docetaxel] | able to stimulate | stimulate | 1.2±0.2 nmol/mg prot./4h | significant increase | able to stimulate | 1.3±0.2 nmol/mg prot./4h | 
2 |  | COc1cccc2c1C(=O)c1c(O)c3c(c(O)c1C2=O)C[C@@](O)(C(=O)CO)C[C@@H]3O[C@H]1C[C@H](N)[C@H](O)[C@H](C)O1 [DOX, doxorubicin] |  |  |  |  |  |  | enhances; also recorded: able to enhance
3 |  | COC(=O)O[C@@]12CO[C@@H]1C[C@H](O)[C@@]1(C)C(=O)[C@H](OC(C)=O)C3=C(C)[C@@H](OC(=O)[C@H](O)[C@@H](NC(=O)c4ccccc4)c4ccccc4)C[C@@](O)([C@@H](OC(=O)c4ccccc4)[C@H]21)C3(C)C [4-desacetyl-4-methylcarbonate taxol] | stimulated this oxidation only at the highest levels tested; also recorded: stimulated NADPH oxidation only at the highest concentration tested, although this was not statistically significant | did not stimulate; also recorded: did not increase |  | did not increase; also recorded: did not afford any significant stimulation | failed to stimulate; also recorded: did not increase; also recorded: has not been found to stimulate |  | 
4 | 2.2±0.2 nmol/mg prot./min | CC(=O)O[C@H]1C(=O)[C@@]2(C)[C@H]([C@H](OC(=O)c3ccccc3)[C@]3(O)C[C@H](OC(=O)[C@H](O)[C@@H](NC(=O)c4ccccc4)c4ccccc4)C(C)=C1C3(C)C)[C@]1(OC(C)=O)CO[C@@H]1C[C@@H]2O [PTX, paclitaxel] | able to stimulate | stimulate | 1.1±0.2 nmol/mg prot./4h | significant increase | able to stimulate | 1.4±0.2 nmol/mg prot./4h | 
